From paper PMC10999543, “Identification of kinase modulators as host-directed therapeutics against intracellular methicillin-resistant Staphylococcus aureus” (Frontiers in Cellular and Infection Microbiology, 2024)
Where two headings read alike, the source gives them in different places.

Columns and labels:
intracellular MRSA = format: cell-based, Staphylococcus aureus; settings: for effect / hit / z-scoreMRSA+ mean / z-scoreMRSA+ rep 1 / z-scoreMRSA+ rep 2 / z-scoreMRSA+ rep 3: PKIS compound screen; for hit: Yes/No call (effect without cell death); for z-scoreMRSA+ mean: mean of 3 replicates; for z-scoreMRSA+ rep 1 / %GFP+ rep 1: replicate 1; for z-scoreMRSA+ rep 2 / %GFP+ rep 2: replicate 2; for z-scoreMRSA+ rep 3 / %GFP+ rep 3: replicate 3
Method: (§1) The cells were resuspended in cell culture medium without antibiotics, seeded with 10,000 cells/well into Costar flat-bottom 96-well plates (Corning, Amsterdam, the Netherlands), and were incubated overnight at 37°C/5% CO2. The next day, the bacteria were centrifuged at ≥1800 g for 15 min and resuspended in cold PBS + 5 mM ethylenediaminetetraacetic acid (EDTA). The number of CFUs present in the bacterial suspension was estimated from the optical density at 600 nm (OD600) by assuming 8x10^8 CFUs to be present in a bacterial suspension with OD600 = 1, based on prior titrations. The bacterial suspension was diluted in cell culture medium without antibiotics and added to the cells. Accuracy of the multiplicity of infection (MOI) was validated by plating serial dilutions of the MRSA inoculums on Difco TS agar plates (BD Biosciences). The calculated mean MOI throughout all experiments was 6.8 ± 4.6 (mean ± SD). Infected cells were centrifuged for 3 min at 150 g and incubated for 1 hour at 37°C/5% CO2. Next, the cells were incubated with fresh cell culture medium supplemented with 30 µg/ml gentamicin sulphate (Lonza BioWhittaker, Basel, Switzerland) for 15 min at 37°C/5% CO2 to kill residual extracellular bacteria. Infected cells were incubated overnight at 37°C/5% CO2 in cell culture medium in the presence of kinase inhibitors and 5 µg/ml gentamicin sulphate-containing medium to prevent the growth of extracellular bacteria. The solvent of the compounds, DMSO, was used at equal % v/v as a negative control. For the screen, each compound was tested in triplicate, on separate cell culture plates, resulting in triplicate values for each kinase inhibitor.
(§2) HeLa cells were harvested by trypsinization and fixed with 1% paraformaldehyde. Samples were measured on a FACSLyric with HTS extension (BD Biosciences). Flow cytometry data were analysed using FlowJo version 10 (TreeStar, Ashland, OR, USA). HeLa cells positive for GFP were gated to calculate the percentage of MRSA-infected cells. The cell count was used as surrogate readout of cell viability.
To identify potential “hit” compounds, the flow cytometry data were used to calculate standard z-scores using z = (x-μ)/σ – zneg, where x is total event count or the percent of GFP-positive cells from a single well, μ is the mean from wells of the plate, σ is the standard deviation of the plate and zneg is the mean z-score of the negative control of the plate (i.e., DMSO) ([Korbee et al., 2018]). To minimize the possibility that the presence of extreme values on a plate affected the z-scores, raw values that deviated two-fold from the negative controls were excluded when calculating plate means and standard deviations as used in the aforementioned formula. Compounds were considered a “hit” when z-scoreMRSA+ ≤ -2 and z-scoreHeLa ≥ -3 for cell count. In cases where compounds were screened twice, the average values were used to select hit compounds.

HeLa cells = experiment: Compound screen by flow cytometry: HeLa cell count as surrogate readout of cell viability (z-scoreHeLa); format: cell-based, human; settings: for cell death / z-scoreHeLa mean / z-scoreHeLa rep 1 / z-scoreHeLa rep 2 / z-scoreHeLa rep 3: PKIS compound screen; for z-scoreHeLa mean: mean of 3 replicates; for z-scoreHeLa rep 1 / cell count rep 1: replicate 1; for z-scoreHeLa rep 2 / cell count rep 2: replicate 2; for z-scoreHeLa rep 3 / cell count rep 3: replicate 3
Method: as §1, §2
To minimize the possibility that the presence of extreme values on a plate affected the z-scores, raw values that deviated two-fold from the negative controls were excluded when calculating plate means and standard deviations as used in the aforementioned formula. Compounds were considered a “hit” when z-scoreMRSA+ ≤ -2 and z-scoreHeLa ≥ -3 for cell count. In cases where compounds were screened twice, the average values were used to select hit compounds.

[1] = PKIS compounds raw data, MRSA-infected HeLa cells
[2] = PKIS compounds raw data, HeLa cell count
[3] = PKIS compound screen raw data, MRSA-infected HeLa cells
[4] = PKIS compound screen raw data, HeLa cell count

Row | SMILES | effect (intracellular MRSA; Yes/No call) | hit (intracellular MRSA) | z-scoreMRSA+ mean (intracellular MRSA) | z-scoreMRSA+ rep 1 (intracellular MRSA) | z-scoreMRSA+ rep 2 (intracellular MRSA) | z-scoreMRSA+ rep 3 (intracellular MRSA) | %GFP+ rep 1 (intracellular MRSA; [1]) [%] | %GFP+ rep 2 (intracellular MRSA; [1]) [%] | %GFP+ rep 3 (intracellular MRSA; [1]) [%] | cell death (HeLa cells; Yes/No call) | z-scoreHeLa mean (HeLa cells) | z-scoreHeLa rep 1 (HeLa cells) | z-scoreHeLa rep 2 (HeLa cells) | z-scoreHeLa rep 3 (HeLa cells) | cell count rep 1 (HeLa cells; [2]) | cell count rep 2 (HeLa cells; [2]) | cell count rep 3 (HeLa cells; [2]) | %GFP+ rep 1 (intracellular MRSA; [3]) [%] | %GFP+ rep 2 (intracellular MRSA; [3]) [%] | %GFP+ rep 3 (intracellular MRSA; [3]) [%] | also measured
1 | COc1cc(N2CCN(C(C)C)CC2)ccc1Nc1nc(Nc2ccc(F)cc2C(N)=O)c2cc[nH]c2n1 [GSK1220512A] | No | No | 1.45 | 1.80 | 1.41 | 1.13 | 18.8 | 17.7 | 19.7 | No | -0.69 | -0.95 | -0.27 | -0.85 | 3725 | 3908 | 5195 | – | – | – | –
2 | COC(=O)c1cccc(NC(=O)NC2CCN(c3ccnc(NCc4ccc(F)cc4)n3)CC2)c1 [GSK1379860A] | No | No | 0.11 | 0.51 | -0.14 | -0.03 | 29.7 | 25.3 | 27.1 | No | -1.76 | -1.69 | -2.71 | -0.89 | 3229 | 1923 | 4200 | 17.4 | 15.1 | 20.5 | z-scoreMRSA+ mean (intracellular MRSA; MRSA-infected HeLa cells): -0.58; z-scoreMRSA+ rep 1 (intracellular MRSA; MRSA-infected HeLa cells): -0.37; z-scoreMRSA+ rep 2 (intracellular MRSA; MRSA-infected HeLa cells): -1.18; z-scoreMRSA+ rep 3 (intracellular MRSA; MRSA-infected HeLa cells): -0.20; effect (intracellular MRSA; Yes/No call on z-scoreMRSA+): No; cell count rep 1 (HeLa cells; [4]): 26314; cell count rep 2 (HeLa cells; [4]): 10320; cell count rep 3 (HeLa cells; [4]): 10213; z-scoreHeLa mean (HeLa cells; HeLa cell count): -1.64; z-scoreHeLa rep 1 (HeLa cells; HeLa cell count): -0.66; z-scoreHeLa rep 2 (HeLa cells; HeLa cell count): -2.56; z-scoreHeLa rep 3 (HeLa cells; HeLa cell count): -1.70; cell death (HeLa cells; Yes/No call on z-scoreHeLa): No
3 | CN1CCC(n2cnc(-c3ccc(F)cc3)c2-c2ccnc(Nc3ccccc3)n2)CC1 [SB-236687] | – | Yes | – | – | – | – | – | – | – | – | – | – | – | – | – | – | – | 10.0 | 12.2 | 12.7 | z-scoreMRSA+ mean (intracellular MRSA; MRSA-infected HeLa cells): -2.18; z-scoreMRSA+ rep 1 (intracellular MRSA; MRSA-infected HeLa cells): -2.49; z-scoreMRSA+ rep 2 (intracellular MRSA; MRSA-infected HeLa cells): -1.90; z-scoreMRSA+ rep 3 (intracellular MRSA; MRSA-infected HeLa cells): -2.16; effect (intracellular MRSA; Yes/No call on z-scoreMRSA+): Yes; cell count rep 1 (HeLa cells; [4]): 21592; cell count rep 2 (HeLa cells; [4]): 24622; cell count rep 3 (HeLa cells; [4]): 40771; z-scoreHeLa mean (HeLa cells; HeLa cell count): -0.54; z-scoreHeLa rep 1 (HeLa cells; HeLa cell count): 0.22; z-scoreHeLa rep 2 (HeLa cells; HeLa cell count): -1.90; z-scoreHeLa rep 3 (HeLa cells; HeLa cell count): 0.04; cell death (HeLa cells; Yes/No call on z-scoreHeLa): No
4 | Cc1cccc(-c2nc(Nc3ccc4ncsc4c3)c3ccccc3n2)n1 [GW867588X] | No | No | 0.0377 | -0.25 | 0.22 | 0.14 | 25.8 | 27.2 | 28.0 | No | 1.67 | 1.09 | 1.64 | 2.28 | 7867 | 8486 | 9199 | – | – | – | –
